Results from US20020032151A1, “Modulating the permeability of a physiological barrier with an agent that modulates tyrosine phosphorylation” (priority 1993, published 2002).
Entries after “also recorded” stand apart in the source; their conditions may differ. Like-named read-outs stand apart in the source and are kept apart here.

What was measured:
MDCK strain I cells [1] = type: cell-based, canine
MDCK strain I cells [2] = assay: Transcellular electrical resistance (TER) of filter-grown MDCK strain I cells; type: cell-based, canine
MDCK strain I cells [3] = type: cell-based, canine; remark: listed apart in the source
[4] = system: brain tissue from normal adult rat; assay: Phosphotyrosine (4G10) label of blood vessels in rat brain tissue exposed to pervanadate; details: rat brain tissue exposed to pervanadate (FIG. 10F)
Procedure: In these experiments, brain sections were labelled with an antibody to phosphotyrosine (monoclonal antibody 4G10) and labelled with a polyclonal antibody to collagen type IV to outline blood vessels. In sham operated animals, 4G10 label was restricted to a few large, peripherally located, vessels with a pattern of staining consistent with tyrosine phosphorylation of proteins at the borders of cells lining the vessels. After 24 hours of MCA occlusion an increase in 4G10 label was seen associated with microvessels located at the edge of the severely damaged tissue (see FIG. 10). The increase in 4G10 label was restricted to vessels in the area of the lesion, but not every vessel was labelled. 4G10 distribution in the microvessels is similar to that seen when brain tissue from normal adult rat is exposed to pervanadate, a drug that elevates levels of phosphotyrosine by inhibiting the enzymes responsible for tyrosine dephosphorylation.
Sections were air-dried and permeablised with 95% ethanol at −95° C. for 30 minutes followed by acetone at room temperature for 1 minute. All of the antibody incubations and washes used PBS containing 5×10^−4 M sodium vanadate. […]

BBECs [5] = type: cell-based, bovine
BBECs [6] = type: cell-based, bovine; remark: listed apart in the source
MDCK cells [7] = details: Volberg et al. 1992; cited from earlier work
[8] = system: ZO-1 and associated proteins; type: cell-based, canine
[9] = system: bovine brain microvessel endothelial cells (BBECs); type: cell-based
MDCK cells [10] = type: cell-based, canine
[11] = system: E-cadherin/catenin complex; type: cell-based, canine
[12] = system: pp60^v−src transfected rat 3Y1 cells; details: pp60v-src transfected rat 3Y1 fibroblast cell line; Matsuyoshi et al. 1992; cited from earlier work
[13] = system: bovine brain microvessel endothelial cells (BBECs); details: BBECs as well as endothelial cells derived from human brain; previously shown (Rubin et al. 1991); cited from earlier work

## CO[C@H]1[C@@H](OC)C[C@H](C)[C@@H](OC)C2=CC(=O)C=C(NC(=O)/C(C)=C/C=C\[C@H](OC)[C@@H](OC(N)=O)/C(C)=C/[C@@H]1C)C2=O [herbimycin A]
MDCK strain I cells [1]
  effect of herbimycin A on PAO-induced increase in protein tyrosine phosphorylation: attenuated the ability of PAO to increase protein tyrosine phosphorylation
MDCK strain I cells [2]
  effect of herbimycin A alone on resistance: did not affect resistance
  effect of herbimycin A pretreatment on PAO-induced decrease in transcellular electrical resistance: attenuated the decrease in transcellular electrical resistance

## pervanadate
MDCK strain I cells [3]
  anti-phosphotyrosine staining pattern: initially caused an increase in staining at the adherens junction at the intercellular borders
MDCK strain I cells [1]
  tyrosine phosphorylation of proteins in whole cell lysates: caused an increase in the tyrosine phosphorylation of many proteins
[4]
  phosphotyrosine label of blood vessels: induces detectable levels of phosphotyrosine in both large and small vessels; also recorded: induces increased phosphotyrosine in both small and large blood vessels
BBECs [5]
  tyrosine phosphorylation of proteins in whole cell lysates: caused an increase in the tyrosine phosphorylation of many proteins
BBECs [6]
  anti-phosphotyrosine staining pattern: initially caused an increase in staining at the adherens junction at the intercellular borders
MDCK cells [7]
  effect on the tight junction, by immunostaining of ZO-1: had no effect on the tight junction
  tyrosine phosphorylation of proteins at the adherens junction: elicited tyrosine phosphorylation of proteins at the adherens junction
[8]
  tyrosine phosphorylation of ZO-1: also stimulated tyrosine phosphorylation of ZO-1; also recorded: clearly resulted in the tyrosine phosphorylation
  tyrosine phosphorylation of ZO-2: clearly resulted in the tyrosine phosphorylation
[9]
  change in TER: caused a dose-dependent and rapid decrease in TER
MDCK cells [10]
  paracellular flux of sucrose: increase the paracellular flux of sucrose
[11]
  tyrosine phosphorylation of proteins in anti-E-cadherin immunoprecipitates: stimulates the tyrosine phosphorylation of several catenins as well as E-cadherin; also recorded: caused an increase in the tyrosine phosphorylation of several proteins
  tyrosine phosphorylation of α-catenin in α-catenin immunoprecipitates: could not be detected
  β-catenin content of phosphotyrosine immunoprecipitates: is increased; also recorded: rapidly increased
MDCK strain I cells [2]
  change in TER: elicited a decrease in TER
  reversibility of the induced decrease in TER by reducing agent if added early enough: partially reversed

## OCC(S)CS (centres unmarked) [2,3-dimercaptopropanol]
[11]
  reversal of PAO-stimulated catenin tyrosine phosphorylation: is reversed; also recorded: reversed catenin tyrosine phosphorylation
MDCK strain I cells [2]; MDCK cells preincubated 10 minutes with 200 μM β-mercaptoethanol or 100 μM 2,3-dimercaptopropanol, 10 μM PAO, TER 30 minutes later (FIG. 2b)
  block of PAO-induced decrease in TER by reducing agent: blocked
MDCK strain I cells [2]; MDCK cells, 100 μM 2,3-dimercaptopropanol preincubation, 3 mM BAPTA (FIG. 2b)
  block of BAPTA-elicited decrease in TER: did not block

## [O]=[V]([O-])([O-])[O-] [vanadate]
[12]
  tyrosine phosphorylation of cadherin and β-catenin: induced the tyrosine phosphorylation of E- or P-cadherin and β-catenin
MDCK strain I cells [2]
  change in TER after addition of H2O2 to vanadate pretreated cells: caused a rapid decrease in TER
  change in TER over a longer time period, vanadate alone: caused a decrease in TER
  change in TER, vanadate alone: did not cause a decrease in TER

## O=C(O)CN(CC(=O)O)c1ccccc1OCCOc1ccccc1N(CC(=O)O)CC(=O)O [BAPTA, bis- (O-aminophenoxy)-ethane-N,N,N′,N′-tetraacetic acid]
MDCK strain I cells [2]; MDCK strain I cells, preformed pervanadate 0.01-0.1 mM (FIG. 1b), PAO 1-30 μM (FIG. 2a), BAPTA 2.5-3 mM
  change in TER: decrease in TER

## Nc1ncnc2c1ncn2[C@@H]1O[C@@H]2COP(=O)(O)O[C@H]2[C@H]1O [cyclic AMP]
[13]
  effect of cyclic AMP on TER: increases TER

## OCCS [β-mercapto-ethanol, β-mercaptoethanol]
MDCK strain I cells [2]
  block of PAO-induced decrease in TER by reducing agent: not
